Earlier results as cited in patent US20080176787A1, “Parathyroid hormone analogues and methods of use” (priority 2005, published 2008).
Like-named read-outs stand apart in the source and are kept apart here. Marks after values point to notes of the source that are not given here.

What was measured:
[1] = tested on: OVX adult Cynomolgus monkeys; settings: Humerus Mid-Diaphysis, F, 18 months, cited from earlier work
[2] = tested on: OVX adult Cynomolgus monkeys; settings: Femoral Neck, F, 18 months, cited from earlier work
monkey = settings: cited from earlier work
[3] = tested on: postmenopausal women (with prior vertebral fractures); settings: cited from earlier work; for hypercalcemia seen at least once, % of subjects: average of 19 months (placebo 2%)
rats = settings: rat, in vivo; cited from earlier work
patients = settings: cited from earlier work
[4] = teriparatide 0, 0.5, 2, 10 μg/kg, 12 mth monkey
[5] = 20 μg (6 months), inferred from graphed data

Which “% Cortical Porosity” value ([1]; 1 μg/kg/day) does the source give for CC[C@H](C)[C@H](NC(=O)[C@H](CCC(=O)O)NC(=O)[C@H](CO)NC(=O)[C@@H](NC(=O)[C@@H](N)CO)C(C)C)C(=O)N[C@@H](CCC(N)=O)C(=O)N[C@@H](CC(C)C)C(=O)N[C@@H](CCSC)C(=O)N[C@@H](Cc1cnc[nH]1)C(=O)N[C@@H](CC(N)=O)C(=O)N[C@@H](CC(C)C)C(=O)NCC(=O)N[C@@H](CCCCN)C(=O)N[C@@H](Cc1cnc[nH]1)C(=O)N[C@@H](CC(C)C)C(=O)N[C@@H](CC(N)=O)C(=O)N[C@@H](CO)C(=O)N[C@@H](CCSC)C(=O)N[C@@H](CCC(=O)O)C(=O)N[C@@H](CCCN=C(N)N)C(=O)N[C@H](C(=O)N[C@@H](CCC(=O)O)C(=O)N[C@@H](Cc1c[nH]c2ccccc12)C(=O)N[C@@H](CC(C)C)C(=O)N[C@@H](CCCN=C(N)N)C(=O)N[C@@H](CCCCN)C(=O)N[C@@H](CCCCN)C(=O)N[C@@H](CC(C)C)C(=O)N[C@@H](CCC(N)=O)C(=O)N[C@@H](CC(=O)O)C(=O)N[C@H](C(=O)N[C@@H](Cc1cnc[nH]1)C(=O)N[C@@H](CC(N)=O)C(=O)N[C@@H](Cc1ccccc1)C(=O)O)C(C)C)C(C)C [Forteo, hPTH-(1-34)] here?
The value was ~15.0* %.

What about the “% Cortical Porosity” value ([1]; 5 μg/kg/day) of the same compound?
The value was ~25* %.

What about the “% Cortical Porosity” value ([2]; 1 μg/kg/day) of the same compound?
The value was 8.5 ± 0.8 %.

And the “% Cortical Porosity” value ([2]; 5 μg/kg/day)?
The value was 8.9 ± 0.6 %.

What about the “nephropathy” value (monkey; pre-clinical toxicity) of the same compound?
The value was “induces a mineralizing nephropathy in monkeys and possibly rats”.

And the “Free Ca” value (monkey; [4])?
Its value is “Free Ca increased”.

And the serum neutralising antibodies (monkey; [4])?
Its serum neutralising antibodies is “detected all doses”.

And the tubulo-interstitial nephritis (monkey; [4])?
Its tubulo-interstitial nephritis is “nephritis all doses;”.

And the NoAEL (monkey; teriparatide, 12 mth monkey)?
The NoAEL was <0.5 µg/kg.

What about the “Mean % Change In Femoral Neck (BMD)” value ([3]; 20 μg for at least 12 Months) of the same compound?
The value was 1.54%.

And the “Mean % Change In Total Hip (BMD)” value ([3]; 20 μg for at least 12 Months)?
Its value is 1.70%.

And the “Mean % Change In Trochanter (BMD)” value ([3]; 20 μg for at least 12 Months)?
The value was 2.68%.

And the “hypercalcemia seen at least once, % of subjects” value ([3]; 20 μg/day)?
Its value is 11%.

And the “hypercalcemia seen at least once, % of subjects” value ([3]; 40 μg/day)?
The value was 28%.

And the “BMD in distal and mid-shaft radius compared to placebo” value ([3]; Neer et al.)?
The value was “decrease in BMD”.

What about the “osteosarcoma in rats (warning label)” value (rats) of the same compound?
Its value is “increase in incidence of osteosarcoma in rats”.

And the CTx (patients; [5])?
The CTx was 3300^2 pM/L.

What about the P1NP (patients; [5]) of the same compound?
The P1NP was 71^2 μg/L.

And the “TH-BMD (%)” value (patients; [5])?
Its value is 0.6^2%.

What about the “FN-BMD (%)” value (patients; 20 μg (6 months)) of the same compound?
Its value is 1.02%.

What about the “LS-BMD (%)” value (patients; 20 μg (6 months)) of the same compound?
Its value is 5.2%.

What about the “Mean [Ca]” value (patients; 20 μg (6 months)) of the same compound?
The value was 0.075 mmol/L.

And the “Pts > 2.75 mmol/L” value (patients; in vivo)?
Its value is 5.

And the “Pts > 2.75 mmol/L (sustained)” value (patients; in vivo)?
The value was 2.
